Results on one molecule are retold here after patent US8992815B2, “Production of organic compound nanoparticles with high repetition rate ultrafast pulsed laser ablation in liquids” (IMRA America, Inc., priority 2010, dated 2015).

Like-named read-outs stand apart in the source and are kept apart here.

The nature of series [1]: Solubility of curcumin in water and methanol. The series is classed as physicochemical. The text has this:
In a first experiment curcumin powder, purchased from Sigma Aldrich, was used as the organic source material. The curcumin powder was formed into a pellet of target material by compression in a 0.5 inch in diameter mold using three tons of pressure. The curcumin pellet was then ablated according to the present invention using deionized water as the liquid. The flow rate of the liquid in the container was about 80 milliliters per second. The curcumin pellet was ablated using an ultrafast pulsed laser having a wavelength of 1045 nanometers, using a pulse duration of 500 femtoseconds, a pulse energy of 1 microJoules, a power of 1 W and a pulse repetition rate of 1 MHz. The laser focus spot size was about 30 micrometers in diameter and the fluence is calculated at about 0.14 Joules/cm^2. The frequency of the vibrating mirror was 50 Hz with a 4 millimeter trace for 0.4 meters per second. […] The hydrocolloidal contains some large particles as evidenced by the spread of the peak and the background absorbance of the curve. The y-axis is the absorption and the x-axis is the wavelength. […] In addition, 0.1 milliliters of the curcumin nanoparticle hydrocolloidal prepared according to the present invention was mixed with 1.0 milliliters of methanol. […]

For series [2] the following is noted: background statement; cited from earlier work.

On to `COc1cc(C=CC(=O)CC(=O)C=Cc2ccc(O)c(OC)c2)ccc1O` [curcumin, 1,7-bis(4-hydroxy-3-methoxyphenyl)-1,6-heptadiene-3,5-dione], for which, in series [1] (methanol, powder dissolved at 2.5×10^−5 M), the solubility in methanol result is reported as “dissolvable in methanol”. For the same molecule, the solubility in water result in series [1] (water) is listed as “does not dissolve in water”; in series [2], “not water soluble”.
